This is an account of results in patent US20090209497A1, “METHOD OF TREATING LYMPHANGIOLEIOMYOMATOSIS (LAM)” (priority 2005, published 2009).

A short description of the experiment: Doxycycline therapy of a patient with LAM: clinical improvement (FEV1, O2 saturation, 6-min walk test). Particulars: person with LAM, doxycycline 20 mg/day escalated up to 100 mg/day. It counts as in vivo, human. An excerpt: FIGS. 1A-1B show successful treatment of LAM with doxycycline: monitoring therapeutic efficacy and measuring clinical improvement. […] Data points represent single measurements taken prior to or during doxycycline therapy. A person was diagnosed with LAM in 1975 after a partial nephrectomy for angiomyolipoma. Although stable for many years, their condition had deteriorated with an FEV1 as low as 0.48 liters (21 percent of predicted), and they were placed on the lung transplant list. […] Based on these elevated MMP levels, doxycycline was initiated at an initial dose of 20 mg/day. Dose escalation (up to 100 mg/day) was determined by monthly urinary MMP profiling (FIG. 1A) and how well the drug was tolerated. […] Telegraphic speech, which was present, resolved.

As for `C[C@H]1c2cccc(O)c2C(=O)C2=C(O)[C@]3(O)C(=O)C(C(N)=O)=C(O)[C@@H](N(C)C)[C@@H]3[C@@H](O)[C@@H]21` [doxycycline], for the setting “before treatment 21 percent of predicted”, the “FEV1, percent of predicted” value is on record as 35% of predicted. Moreover, under “before treatment as low as 0.48 liters”, the “FEV1 (lung capacity)” value amounted to 0.91 L.
